According to patent US6022901A, “Administration of resveratrol to prevent or treat restenosis following coronary intervention” (priority 1998, dated 2000):
Values joined by “and” are separate entries in the source; they are usually repeats but may differ in a detail not shown here. Equal entries are not always repeated.

Key:
[1] = Effect of Resveratrol on Body Weight of Female A/J Mice (diet, 6-week treatment); type: in vivo
Text: (§1) This experimental work assesses the bioavailability of resveratrol when administered orally to Female Mice Strain A, establishes the relationship betveen oral administration of resveratrol and the plasma concentration of the female mice, assesses the method of analysis for mouse plasma and establishes the detection limit of resveratrol in animal plasma. The mice were received from the Biological Testing Branch, National Cancer Institute, at 4-6 weeks of age, each having a body weight of approximately 16 g.
(§2) After a quarantine period of one week, seven (7) groups each consisting of 10 mice were given resveratrol mixed with Teklad 4% Mouse/Rat chow ad libitum for a 6-week treatment period. As indicated in the table which follows, the concentration of resveratrol ranged from 125 mg/kg of diet to 3000 mg/kg of diet, with one group, as the control group, receiving only the mouse chow.
(§3) Parameters monitored during the course of the study included sided-cage observations twice daily and body weight. Blood samples were taken at the end of the treatment period of 6 weeks and kept frozen at -20° C.±5 until the time of analysis. All animals were sacrificed by asphyxiation.

[2] = Resveratrol concentration in mouse plasma after oral administration in diet (HPLC); type: in vivo, mouse (Female Mice Strain A); conditions: for concentration at 1008 h: plasma, po, 6 weeks
Text: as §1
After a quarantine period of one week, seven (7) groups each consisting of 10 mice were given resveratrol mixed with Teklad 4% Mouse/Rat chow ad libitum for a 6-week treatment period.
as §3
Plasma resveratrol concentration was determined by a liquid-liquid extraction method and reverse phase HPLC at Pharmascience Inc., Bio-analytical Division, Quebec, Canada, as follows. After addition of internal standard and buffer to plasma samples, ethyl acetate was then added. The extracted organic phase was transferred to a clean tube and dried with a nitrogen evaporator. The residue was reconstituted with the mobile phase and then injected to HPLC with UV at 310 nm.

[3] = Clinical signs, cage observations twice daily in mice fed resveratrol; type: in vivo, mouse (Female Mice Strain A); conditions: any dose groups tested, 125-3000 mg/kg diet, 6 weeks
Text: as §1, §2, §3

[4] = anti-initiation activity; cited from earlier work
[5] = anti-initiation activity; cited from earlier work; remark: listed apart in the source
[6] = test system: phase II drug-metabolizing enzymes; conditions: anti-initiation activity; cited from earlier work
[7] = antipromotion activity; cited from earlier work
[8] = test system: cyclooxygenase; conditions: antipromotion activity; cited from earlier work
[9] = test system: hydroperoxidase; conditions: antipromotion activity; cited from earlier work
[10] = test system: human promyelocytic leukemia cell; conditions: cited from earlier work

**Q.** What does the source list for `Oc1ccc(C=Cc2cc(O)cc(O)c2)cc1` [resveratrol, 3,5,4'-trihydroxy stilbene]?
**A.** mean body weight ([1]; 125 ppm, day 5, N=10): 16.4 Grams; mean body weight ([1]; 125 ppm, day 8, N=10): 16.6 Grams; mean body weight ([1]; 125 ppm, day 12, N=10): 17.3 Grams; mean body weight ([1]; 125 ppm, day 15, N=10): 18.0 Grams; mean body weight ([1]; 125 ppm, day 19, N=10): 18.4 Grams; mean body weight ([1]; 125 ppm, day 22, N=10): 18.7 Grams; mean body weight ([1]; 125 ppm, day 26, N=10): 19.0 Grams; mean body weight ([1]; 125 ppm, day 29, N=10): 19.0 Grams; mean body weight ([1]; 125 ppm, day 33, N=10): 19.4 Grams; mean body weight ([1]; 125 ppm, day 36, N=10): 19.3 Grams; mean body weight ([1]; 125 ppm, day 40, N=10): 19.2 Grams; mean body weight ([1]; 125 ppm, day 42, N=10): 19.7 Grams; mean body weight ([1]; 250 ppm, day 5, N=10): 16.2 Grams; mean body weight ([1]; 250 ppm, day 8, N=10): 16.8 Grams; mean body weight ([1]; 250 ppm, day 12, N=10): 17.7 Grams; mean body weight ([1]; 250 ppm, day 15, N=10): 18.4 Grams; mean body weight ([1]; 250 ppm, day 19, N=10): 18.9 Grams; mean body weight ([1]; 250 ppm, day 22, N=10): 19.0 Grams; mean body weight ([1]; 250 ppm, day 26, N=10): 19.3 Grams; mean body weight ([1]; 250 ppm, day 29, N=10): 19.4 Grams; mean body weight ([1]; 250 ppm, day 33, N=10): 19.7 Grams; mean body weight ([1]; 250 ppm, day 36, N=10): 19.6 Grams; mean body weight ([1]; 250 ppm, day 40, N=10): 19.9 Grams; mean body weight ([1]; 250 ppm, day 42, N=10): 19.9 Grams; mean body weight ([1]; 500 ppm, day 5, N=10): 16.6 Grams; mean body weight ([1]; 500 ppm, day 8, N=10): 17.5 Grams; mean body weight ([1]; 500 ppm, day 12, N=10): 17.8 Grams; mean body weight ([1]; 500 ppm, day 15, N=10): 18.3 Grams; mean body weight ([1]; 500 ppm, day 19, N=10): 18.7 Grams; mean body weight ([1]; 500 ppm, day 22, N=10): 19.2 Grams; mean body weight ([1]; 500 ppm, day 26, N=10): 19.4 Grams; mean body weight ([1]; 500 ppm, day 29, N=10): 19.8 Grams; mean body weight ([1]; 500 ppm, day 33, N=10): 19.8 Grams; mean body weight ([1]; 500 ppm, day 36, N=10): 20.1 Grams; mean body weight ([1]; 500 ppm, day 40, N=10): 20.0 Grams; mean body weight ([1]; 500 ppm, day 42, N=10): 20.2 Grams; mean body weight ([1]; 1000 ppm, day 5, N=10): 16.1 Grams; mean body weight ([1]; 1000 ppm, day 8, N=10): 16.9 Grams; mean body weight ([1]; 1000 ppm, day 12, N=10): 17.4 Grams; mean body weight ([1]; 1000 ppm, day 15, N=10): 18.2 Grams; mean body weight ([1]; 1000 ppm, day 19, N=10): 18.1 Grams; mean body weight ([1]; 1000 ppm, day 22, N=10): 18.8 Grams; mean body weight ([1]; 1000 ppm, day 26, N=10): 19.0 Grams; mean body weight ([1]; 1000 ppm, day 29, N=10): 19.3 Grams; mean body weight ([1]; 1000 ppm, day 33, N=10): 19.5 Grams; mean body weight ([1]; 1000 ppm, day 36, N=10): 19.8 Grams; mean body weight ([1]; 1000 ppm, day 40, N=10): 19.5 Grams; mean body weight ([1]; 1000 ppm, day 42, N=10): 19.6 Grams; mean body weight ([1]; 2000 ppm, day 5, N=10): 16.3 Grams; individual body weight ([1]; 2000 ppm, day 5, animals 51-60): 17.8 Grams and 15.7 Grams and 16.1 Grams and 17.0 Grams and 13.7 Grams; mean body weight ([1]; 2000 ppm, day 8, N=10): 16.6 Grams; individual body weight ([1]; 2000 ppm, day 8, animals 51-60): 19.1 Grams and 15.8 Grams and 14.8 Grams and 16.5 Grams and 13.6 Grams; mean body weight ([1]; 2000 ppm, day 12, N=10): 17.7 Grams; individual body weight ([1]; 2000 ppm, day 12, animals 51-60): 19.5 Grams and 16.9 Grams and 17.0 Grams and 19.2 Grams and 18.1 Grams and 15.3 Grams; mean body weight ([1]; 2000 ppm, day 15, N=10): 17.7 Grams; individual body weight ([1]; 2000 ppm, day 15, animals 51-60): 19.6 Grams and 16.9 Grams and 16.7 Grams and 19.0 Grams and 17.7 Grams and 14.5 Grams; mean body weight ([1]; 2000 ppm, day 19, N=10): 18.8 Grams; individual body weight ([1]; 2000 ppm, day 19, animals 51-60): 20.1 Grams and 18.4 Grams and 19.5 Grams and 15.7 Grams; mean body weight ([1]; 2000 ppm, day 22, N=10): 19.1 Grams; individual body weight ([1]; 2000 ppm, day 22, animals 51-60): 20.3 Grams and 18.8 Grams and 18.4 Grams and 20.9 Grams and 20.0 Grams and 16.3 Grams; mean body weight ([1]; 2000 ppm, day 26, N=10): 19.2 Grams; individual body weight ([1]; 2000 ppm, day 26, animals 51-60): 20.2 Grams and 19.0 Grams and 18.7 Grams and 20.7 Grams and 19.9 Grams and 16.0 Grams; mean body weight ([1]; 2000 ppm, day 29, N=10): 19.5 Grams; individual body weight ([1]; 2000 ppm, day 29, animals 51-60): 20.7 Grams and 19.5 Grams and 18.8 Grams and 21.4 Grams and 20.0 Grams and 16.1 Grams; mean body weight ([1]; 2000 ppm, day 33, N=10): 19.8 Grams; individual body weight ([1]; 2000 ppm, day 33, animals 51-60): 21.0 Grams and 19.8 Grams and 19.5 Grams and 21.2 Grams and 20.7 Grams and 16.6 Grams; mean body weight ([1]; 2000 ppm, day 36, N=10): 19.6 Grams; individual body weight ([1]; 2000 ppm, day 36, animals 51-60): 21.3 Grams and 18.4 Grams and 18.5 Grams and 20.4 Grams and 20.0 Grams and 16.7 Grams; mean body weight ([1]; 2000 ppm, day 40, N=10): 19.7 Grams; individual body weight ([1]; 2000 ppm, day 40, animals 51-60): 20.3 Grams and 19.9 Grams and 18.9 Grams and 21.0 Grams and 20.9 Grams and 17.2 Grams; mean body weight ([1]; 2000 ppm, day 42, N=10): 20.3 Grams; individual body weight ([1]; 2000 ppm, day 42, animals 51-60): 19.5 Grams and 21.7 Grams and 19.2 Grams and 21.9 Grams and 21.3 Grams and 18.0 Grams; mean body weight ([1]; group 7, 300 (ppm), day 5, N=10): 16.3 Grams; individual body weight ([1]; group 7, 300 (ppm), day 5, animals 61-70): 16.0 Grams and 14.9 Grams and 15.2 Grams; mean body weight ([1]; group 7, 300 (ppm), day 8, N=10): 17.1 Grams; individual body weight ([1]; group 7, 300 (ppm), day 8, animals 61-70): 16.8 Grams and 16.4 Grams and 16.1 Grams; mean body weight ([1]; group 7, 300 (ppm), day 12, N=10): 17.6 Grams; individual body weight ([1]; group 7, 300 (ppm), day 12, animals 61-70): 17.6 Grams and 17.5 Grams and 17.4 Grams; mean body weight ([1]; group 7, 300 (ppm), day 15, N=10): 17.1 Grams; individual body weight ([1]; group 7, 300 (ppm), day 15, animals 61-70): 16.9 Grams and 17.2 Grams; mean body weight ([1]; group 7, 300 (ppm), day 19, N=10): 18.7 Grams; individual body weight ([1]; group 7, 300 (ppm), day 19, animals 61-70): 18.8 Grams and 18.2 Grams; mean body weight ([1]; group 7, 300 (ppm), day 22, N=10): 19.1 Grams; individual body weight ([1]; group 7, 300 (ppm), day 22, animals 61-70): 18.5 Grams and 18.6 Grams; mean body weight ([1]; group 7, 300 (ppm), day 26, N=10): 19.1 Grams; individual body weight ([1]; group 7, 300 (ppm), day 26, animals 61-70): 18.6 Grams and 18.5 Grams; mean body weight ([1]; group 7, 300 (ppm), day 29, N=10): 18.9 Grams; individual body weight ([1]; group 7, 300 (ppm), day 29, animals 61-70): 18.8 Grams and 18.3 Grams; mean body weight ([1]; group 7, 300 (ppm), day 33, N=10): 19.5 Grams; individual body weight ([1]; group 7, 300 (ppm), day 33, animals 61-70): 18.7 Grams and 18.8 Grams; mean body weight ([1]; group 7, 300 (ppm), day 36, N=10): 19.9 Grams; individual body weight ([1]; group 7, 300 (ppm), day 36, animals 61-70): 19.4 Grams and 18.6 Grams; mean body weight ([1]; group 7, 300 (ppm), day 40, N=10): 19.6 Grams; individual body weight ([1]; group 7, 300 (ppm), day 40, animals 61-70): 19.3 Grams and 19.1 Grams; mean body weight ([1]; group 7, 300 (ppm), day 42, N=10): 20.1 Grams; individual body weight ([1]; group 7, 300 (ppm), day 42, animals 61-70): 19.1 Grams and 19.5 Grams; oral absorption ([2]; mixed with chow): easily absorbed by the oral route; relationship between plasma resveratrol levels and amount administered ([2]; oral in diet, FIG. 1): linear relationship; concentration at 1008 h ([2]; 125 mg/kg diet, n=5): 10.8 ng/mL; concentration at 1008 h ([2]; 250 mg/kg diet, n=4): 87.9 ng/mL; concentration at 1008 h ([2]; 500 mg/kg diet, n=5): 56.8 ng/mL; concentration at 1008 h ([2]; 1000 mg/kg diet, n=5): 99 ng/mL; concentration at 1008 h ([2]; 2000 mg/kg diet, n=5): 178 ng/mL; concentration at 1008 h ([2]; 3000 mg/kg diet, n=5): 447 ng/mL; compound-related clinical signs [3]: no compound-related clinical signs; antioxidant activity [4]: acted as an antioxidant; antimutagen activity [5]: antimutagen; induction of phase II drug-metabolizing enzymes [6]: induced phase II drug-metabolizing enzymes; anti-inflammatory effects [7]: mediated anti-inflammatory effects; inhibition of cyclooxygenase [8]: inhibited cyclooxygenase; inhibition of hydroperoxidase [9]: inhibited cyclooxygenase and hydroperoxidase; human promyelocytic leukemia cell differentiation [10]: induced human promyelocytic leukemia cell differentiation
